Assay results from patent publication US20110212909A1, “Use of Ginsenoside Compound K in the Preparation of a Medicament for the Prevention and Treatment of Atherosclerosis” (priority 2008, published 2011).
Marks after values point to notes of the source that are not given here.

Assays:
[1] = tested on: macrophage-derived foam cells of rat abdominal cavity; test: Assay of amount of TC and CE in ox-LDL induced macrophage-derived foam cells; assay type: cell-based; conditions: 25 μM, 48 hours, rat foam cells, x ± s, n = 5
Experimental: 1. Experiment animal: SD rats, male, 200-250 g, bought from the third Military Medical University Experiment Animal Center.
2. Reagents: RPMI 1640 culture medium free of phenol red bought from Invitrogen company; LDL (115 mg/mL) bought from Peking Union Medical College; total cholesterol kit and free cholesterol kit bought from Shanghai Mind Bioengineering Limited Company; ginsenoside compound K (hereinafter being called C-K for short. White powders, purity 99%), provided by Kunming Nuowei Jinshen Bioengineering limited company supply (batch number: NTGA070521, details see China invention patent 200710066011. X “a method of preparing rare ginsenoside compound K by streptomycete fermentation of Sanchi saponins”).
LDL was placed into PBS comprising 10 μM Cu^2+, dialysed at 37° C. for 12 h, then was placed into PBS comprising 0.01% EDTA, and dialysed at 4° C. for 24 hours before stopping oxidization, then was subjected to filtration sterilization, and stored for use.
4. Culture of macrophage and establishment of foam cells model (available literature: Jia Yi, Li Xiaohui, Xing Mao, Hei Xuefeng, Liu Ya, He Cuiyao. Studies on affect of various combinations of 3 sorts of monomers in total panax notoginsenosides on formation of mouse macrophage-derived foam cells. Journal of China Pharmacy, 2008, 19 (2), 881-883.)
each rat were intraperitoneally injected with 2 mL RPMI 1640 culture solution free of serum and phenol red, and it was sacrificed by cervical dislocation after 20 minutes, and was soaked in 75% ethanol for 10 minutes, then rat's belly was cut open, and fluids in abdominal cavity were collected, and centrifugated at 750 r/min for 5 minutes, and then cells were collected, and cells concentrations were adjusted to […] by using RPMI 1640 culture solution which were free of phenol red and comprised 10% Fetal Calf Serum. 10 pieces of 6 wells plate was added 1 mL cells suspension per well, and was placed into an incubator of 5% CO2 at 37 °C, and cultured for two hours, then supernatant was discarded, and nonadhesive cells was washed by using PBS. Original culture medium was discarded. Culture was carried out for 48 hours after adding 5 mL culture medium comprising 20 mg/L ox-LDL, and thereby foam cells were formed.
[…] were divided into ox-LDL model group, pyrrolidine dithiocarbamate (PDTC) (drugs source: Sigma), control group and C-K interference group. Each group had 5 pieces of plates. […]
Culture solution was aspirated, and lipid in foam cells was extracted by Folch method (reference: Folch J et al, A simple method for the isolation and purification of total lipides from animal tissues. J Biol Chem, 1957, 226 (1): 497-509), according to direction for use of kit.
Data was expressed as x±s, and variance analysis was carried out between groups by SPSS 13.0 software.

[2] = tested on: CD36 mRNA; test: Real-time quantitative PCR of CD36 mRNA in foam cells; assay type: cell-based; conditions: 25 μM, rat foam cells
Experimental: FIG. 1 provides effects of a ginsenoside compound K (C-K, 25 μM) and pyrrolidine dithiocarbamate (PDTC, 25 μM) on the foam cell CD36 mRNA expression. a: P<0.05, vs foam cell group; b: P<0.05, vs PDTC. PDTC (25 μM) C-K (25 μM) (n=5).
(1) Material and reagents (the same as Example 2).
(2) real-time quantitative PCR analysis (a reference method: Zhang Yiguan, Li Xiaohui, Fan Jishan, Zhang Haigang, Li Shuhui, Liao Wenqiang, Pang Yan, Jia Yi. Total panax notoginsenosides suppress atherosclerosis formation in rats by means of antiinflammatory and blood fat regulating action. Progress in Modern Biomedicine. 2007, 27(11): 1601-1607).
Data was expressed as x±s, variance analysis were carried out between groups by SPSS 13.0 software.

## S=C(S)N1CCCC1 [PDTC, pyrrolidine dithiocarbamate, reference compound]
[1]; ox-LDL model group 15.24 ± 2.38
  CE in foam cells: 30.63 ± 3.17^a
[1]; ox-LDL model group 59.56 ± 2.96
  CE/TC in foam cells: 50.29 ± 3.54^a %
[1]; ox-LDL model group 87.20 ± 2.19
  TC in foam cells: 60.81 ± 2.62^a
[2]
  change of CD36 mRNA expression in foam cells compared with model group: increased expression
